Measured values: ChEMBL document CHEMBL5532691, “Anti-cancer activity and mechanism of flurbiprofen organoselenium compound RY-1-92 in non-small cell lung cancer” (RSC Med Chem, 2024)
Calls of active or inactive are those of the source. The calls are words filed in the database; no cut-off is given here.

Experiments:
A549 [1] = assay: Induction of apoptosis in human A549 cells assessed as early apoptotic cells at 30 uM measured after 48 hrs by annexin V-FITC/PI staining based flow cytometry analysis (reference value: 0.59%); type: functional
NCI-H460 [2] = assay: Inhibition of cell migration in human NCI-H460 cells at 10 to 30 uM measured after 24 hrs by wound healing assay relative to control; type: functional; conditions: dose 10-30 µM
NCI-H460 [3] = assay: Inhibition of colony formation in human NCI-H460 cells at 30 uM measured after 48 hrs by giemsa staining based analysis relative to control; type: functional
Lewis lung carcinoma [4] = assay: Antitumor activity against mouse Lewis lung carcinoma cell line xenografted in C57BL/6 mouse model assessed as increase in bax protein expression at 10 to 20 mg/kg by Western blot analysis; type: functional, organism-based; conditions: dose 10-20 mg/kg
A549 [5] = assay: Induction of apoptosis in human A549 cells assessed as late apoptotic cells at 30 uM measured after 48 hrs by annexin V-FITC/PI staining based flow cytometry analysis (reference value: 15.12%); type: functional
A549 [6] = assay: Induction of cell cycle arrest in human A549 cells assessed as accumulation of cells as G1 phase at 10 uM measured after 24 hrs by propidium iodide staining based flow cytometry analysis (reference value: 71.74%); type: functional
Lewis lung carcinoma [7] = assay: Antitumor activity against mouse Lewis lung carcinoma cell line xenografted in C57BL/6 mouse model assessed as increase in Bax/Bcl2 ratio at 10 to 20 mg/kg by Western blot analysis; type: functional, organism-based; conditions: dose 10-20 mg/kg
NCI-H460 [8] = assay: Induction of cell cycle arrest in human NCI-H460 cells assessed as accumulation of cells as S phase at 10 uM measured after 24 hrs by propidium iodide staining based flow cytometry analysis (reference value: 7.09%); type: functional
NCI-H460 [9] = assay: Induction of apoptosis in human NCI-H460 cells assessed as late apoptotic cells at 30 uM measured after 48 hrs by annexin V-FITC/PI staining based flow cytometry analysis (reference value: 5.41%); type: functional
NCI-H460 [10] = assay: Induction of cell cycle arrest in human NCI-H460 cells assessed as accumulation of cells as G1 phase at 10 uM measured after 24 hrs by propidium iodide staining based flow cytometry analysis (Rvb =84.54%); type: functional
A549 [11] = assay: Downregulation of ERK phosphorylation expression in human A549 cells at 10 to 30 uM by Western blot analysis; type: functional, cell-based; conditions: dose 10-30 µM
NCI-H460 [12] = assay: Induction of cell cycle arrest in human NCI-H460 cells assessed as accumulation of cells as G2 phase at 10 uM measured after 24 hrs by propidium iodide staining based flow cytometry analysis (reference value: 8.37%); type: functional
NCI-H460 [13] = assay: Induction of cell cycle arrest in human NCI-H460 cells assessed as accumulation of cells as G1 phase at 30 uM measured after 24 hrs by propidium iodide staining based flow cytometry analysis (reference value: 84.54%); type: functional
NCI-H460 [14] = assay: Induction of cell cycle arrest in human NCI-H460 cells assessed as accumulation of cells as G2 phase at 30 uM measured after 24 hrs by propidium iodide staining based flow cytometry analysis (reference value: 8.37%); type: functional
A549 [15] = assay: Downregulation of JNK phosphorylation expression in human A549 cells at 10 to 30 uM by Western blot analysis; type: functional, cell-based; conditions: dose 10-30 µM
A549 [16] = assay: Antiproliferative activity against human A549 cells assessed as inhibition of cell growth incubated for 48 hrs by MTT assay; type: functional, cell-based
A549 [17] = assay: Inhibition of colony formation in human A549 cells at 10 uM measured after 48 hrs by giemsa staining based analysis relative to control; type: functional
Lewis lung carcinoma [18] = assay: Antitumor activity against mouse Lewis lung carcinoma cell line xenografted in C57BL/6 mouse model assessed as downregulation of cyclin B1 expression at 10 to 20 mg/kg by Western blot analysis; type: functional, organism-based; conditions: dose 10-20 mg/kg
A549 [19] = assay: Downregulation of AKT phosphorylation expression in human A549 cells at 10 to 30 uM by Western blot analysis; type: functional, cell-based; conditions: dose 10-30 µM
NCI-H460 [20] = assay: Downregulation of CDK1 protein expression in human NCI-H460 cells at 30 uM by Western blot analysis; type: functional, cell-based
A549 [21] = assay: Induction of apoptosis in human A549 cells assessed as necrotic cells at 30 uM measured after 48 hrs by annexin V-FITC/PI staining based flow cytometry analysis (reference value: 4.03%); type: functional
A549 [22] = assay: Induction of cell cycle arrest in human A549 cells assessed as accumulation of cells as G2 phase at 10 uM measured after 24 hrs by propidium iodide staining based flow cytometry analysis (reference value: 8.69%); type: functional
A549 [23] = assay: Induction of cell cycle arrest in human A549 cells assessed as accumulation of cells as G1 phase at 30 uM measured after 24 hrs by propidium iodide staining based flow cytometry analysis (reference value: 71.74%); type: functional
A549 [24] = assay: Induction of apoptosis in human A549 cells assessed as viable cells at 30 uM measured after 48 hrs by annexin V-FITC/PI staining based flow cytometry analysis (reference value: 80.26%); type: functional; conditions: read-out: Activity
A549 [25] = assay: Inhibition of colony formation in human A549 cells at 30 uM measured after 48 hrs by giemsa staining based analysis relative to control; type: functional
NCI-H460 [26] = assay: Induction of apoptosis in human NCI-H460 cells assessed as necrotic cells at 10 uM measured after 48 hrs by annexin V-FITC/PI staining based flow cytometry analysis (reference value: 2.47%); type: functional
NCI-H460 [27] = assay: Downregulation of P38 phosphorylation expression in human NCI-H460 cells at 10 to 30 uM by Western blot analysis; type: functional, cell-based; conditions: dose 10-30 µM
Lewis lung carcinoma [28] = assay: Antitumor activity against mouse Lewis lung carcinoma cell line xenografted in C57BL/6 mouse model assessed as downregulation of CDK1 expression at 10 to 20 mg/kg by Western blot analysis; type: functional, organism-based; conditions: dose 10-20 mg/kg
NCI-H460 [29] = assay: Downregulation of ERK phosphorylation expression in human NCI-H460 cells at 10 to 30 uM by Western blot analysis; type: functional, cell-based; conditions: dose 10-30 µM
BEAS-2B = assay: Cytotoxicity against human BEAS-2B cells assessed as reduction in cell viability at 3 to 300 uM measured after 48 hrs by MTT assay; type: toxicity, cell-based; conditions: dose 3-300 µM

- IC50 (A549 [16]; A549, 48 h): 41.9 µM
Compound: CC(C(=O)NCCC[Se]C(F)(F)F)c1ccc(-c2ccccc2)c(F)c1 (stereo unspecified)
- Activity (A549 [1]): 1.13%
- inhibition (INH) (NCI-H460 [2]): 47.5%
- inhibition at 30 µM (NCI-H460 [3]): 88%
- Activity (Lewis lung carcinoma [4]): Active
- Activity (A549 [5]): 35.06%
- Activity (A549 [6]): 76.88%
- Activity (Lewis lung carcinoma [7]): Active
- Activity (NCI-H460 [8]): 10.6%
- Activity (NCI-H460 [9]): 17.28%
- Activity (NCI-H460 [10]): 78.71%
- Activity (A549 [11]): Active
- Activity (NCI-H460 [12]): 10.69%
- Activity (NCI-H460 [13]): 5.73%
- Activity (NCI-H460 [14]): 83.13%
- Activity (A549 [15]): Active
- Activity (A549 [16]; dose 3-300 µM): Dose-Dependent Effect
- inhibition at 10 µM (A549 [17]): 45%
- Activity (Lewis lung carcinoma [18]): Active
- Activity (A549 [19]): Active
- Activity (NCI-H460 [20]): Active
- Activity (A549 [21]): 8.86%
- Activity (A549 [22]): 9.29%
- Activity (A549 [23]): 7.45%
- viability at 30 µM (A549 [24]): 55%
- inhibition at 30 µM (A549 [25]): 89%
- Activity (NCI-H460 [26]): 1.67%
- Activity (NCI-H460 [27]): Active
- Activity (Lewis lung carcinoma [28]): Active
- Activity (NCI-H460 [29]): Active
- Activity (BEAS-2B): Toxic
